Results: patent US12534762B2, “Treating atopic dermatitis by targeting the WNT pathway” (Children's Medical Center Corporation, priority 2018, dated 2026)

Tested on: Xenopus embryos
Assay: Dorso-animal morpholino injection, phenotype scored at stage 35
Format: in vivo, Xenopus laevis
Conditions: FIG. 6 Panel D
Description: Xenopus embryo manipulations. Procedures for embryo manipulation, reverse transcription PCR and in situ hybridization were performed as previously described (Zhang et al., 2012, Cell, 149:1565-1577). The full length Xenopus laevis Tmem79 cDNA was used to make in situ sense and antisense probes.
mRNA and Morpholino injection. For animal cap assays, indicated mRNAs (Tmem79, 100 and 200 pg; Xwnt8, 10 pg; β-catenin 50 pg; Xnr1, 250 pg; BMP4, 100 pg) were injected into the animal pole at 4-cell stage, and animal caps were dissected at stage 9 (in the case of Xwnt8, Xnr1, BMP4) or at stage 8.5 and treated with recombinant proteins (bFGF, 100 ng/ml; hShh, 1.5 ng/mL) until stage 10 before RT-PCR. For Neural induction assay the MO (20 ng) for Tmem79, Usp8 or β-catenin was injected into the animal pole at 4-cell stage, and animal caps were dissected at stage 9 and treated with recombinant protein Noggin (500 ng/mL) until stage 18 before RT-PCR. To examine Tmem79 and Usp8 MOs specificity, […] of mRNA of Xenopus Tmem79, mouse Tmem79, Xenopus Usp8 or xmutUsp8 (Xenopus Usp8 mutated for mismatches with the MO) were injected with a control MO, Tmem79 MO or Usp8 MO (20 ng) into the animal pole at the 2-cell stage and cultured til stage 10 for Western blotting. To knockdown the endogenous xTmem79 or xUsp8, 20 ng of control MO, Tmem79 MO or Usp8 MO were injected into two dorso-animal blastomeres at the 8-cell stage and the phenotype was scored at stage 35. To rescue the Tmem79 MO phenotype, […] of mTmem 79, 20 ng of Usp8 MO or 10 ng of β-catenin MO was injected together with Tmem79 MO (20 ng). RT-PCR primers and Morpholinos. RT-PCT primer for Xenopus laevis Tmem 79: Forward, 5′-[…]-3′ (SEQ ID NO: 22); Reverse, 5′-[…]-3′ (SEQ ID NO: 23). The MO sequences: Tmem79.S MO, 5′-[…]-3′ (SEQ ID NO: 24); Tmem79.L MO, 5′-[…]-3′ (SEQ ID NO: 25); Usp8 MO, 5′-[…]-3′ ((SEQ ID NO: 26; Gene Tools, LLC). Phylogeny analysis and protein sequences. TMEM79 protein sequences were derived from full-length NCBI accessions and genomic sequences. Human (Homo sapiens): NP_115699.1 (SEQ ID NO: 27), Chimpanzee (Pan troglodytes): XP_001165258.1 (SEQ ID NO: 28), Rat (Rattus norvegicus): NP_001029068.1 (SEQ ID NO: 29), Mouse (Mus musculus): NP_077208.1 (SEQ ID NO: 30), Chicken (Gallus gallus): XP_024999333.1 (SEQ ID NO: 31), Frog (Xenopus laevis): XP_018089022.1 (SEQ ID NO: 32), Zebra fish (Danio rerio): XP_009290676.1 (SEQ ID NO: 33) and Coelacanth (Latimeria chalumnae): XP_014351966.1 (SEQ ID NO: 34). The Protein sequences encoded by mouse MAPEG family (Membrane-Associated Proteins in Eicosanoid and Glutathione metabolism, pfam01124) members protein sequences were derived from full-length NCBI accessions and genomic sequences. […]

Usp8 MO: morpholino against Xenopus Usp8, SEQ ID NO: 26 (antisense GCTGCAAATTCTCCTCTCTTATCAA; all phosphorodiamidate morpholino (PMO); listed as Xenopus laevis)
Enlarged Head: 93.2 % of embryos
Moderate Deficiency (anterior deficiency): 0.0 % of embryos
Severe Deficiency (anterior deficiency): 0.0 % of embryos
Normal (dorso-animal injection): 6.8 % of embryos
